Experimental data as given in ChEMBL document CHEMBL5230086, “Contemporary approaches and future perspectives of antibacterial photodynamic therapy (aPDT) against methicillin-resistant Staphylococcus aureus (MRSA): A systematic review” (Eur J Med Chem, 2020).

Experiments:
Staphylococcus aureus [1] = test: Photodynamic antibacterial activity against Methicillin-resistant Staphylococcus aureus ATCC 43300 assessed as reduction in bacterial growth at 0.01 % followed by photo-irradiation with 412 nm at 5.4 J/cm^2 light for 10 min by microscopic analysis; assay type: functional; design: scale not given: the % may be the effect or the level left
Staphylococcus aureus [2] = test: Photodynamic antibacterial activity against Methicillin-resistant Staphylococcus aureus assessed as reduction in bacterial growth at 0.01 % followed by photo-irradiation with 5405 J/cm^2 light for 30 min by microscopic analysis; assay type: functional; design: scale not given: the % may be the effect or the level left; details: 0.5 h
Staphylococcus aureus [3] = test: Photodynamic antibacterial activity against Methicillin-resistant Staphylococcus aureus clinical isolate 1 assessed as reduction in bacterial growth at 0.01 % followed by photo-irradiation with 5.4 J/cm^2 light for 30 min by microscopic analysis; assay type: functional; design: scale not given: the % may be the effect or the level left; details: 0.5 h
Staphylococcus aureus [4] = test: Photodynamic antibacterial activity against Methicillin-resistant Staphylococcus aureus ATCC 43300 assessed as reduction in bacterial growth at 0.01 % followed by photo-irradiation with 450 nm at 5.4 J/cm^2 light for 10 min by microscopic analysis; assay type: functional; design: scale not given: the % may be the effect or the level left
Staphylococcus aureus [5] = test: Photodynamic antibacterial activity against Methicillin-resistant Staphylococcus aureus clinical isolate 2 assessed as reduction in bacterial growth at 0.01 % followed by photo-irradiation with 5.4 J/cm^2 light for 30 min by microscopic analysis; assay type: functional; design: scale not given: the % may be the effect or the level left; details: 0.5 h
Staphylococcus aureus [6] = test: Photodynamic antibacterial activity against Methicillin-resistant Staphylococcus aureus assessed as reduction in bacterial growth followed by photo-irradiation with 25 J/cm^2 light for 15 mins by crystal violet staining assay; assay type: functional; design: scale not given: the % may be the effect or the level left; details: 0.25 h
Staphylococcus aureus [7] = test: Photodynamic antibacterial activity against Methicillin-resistant Staphylococcus aureus assessed as reduction in bacterial colony forming unit at 8 uM followed by photo-irradiation with 30 J/cm^2 light; assay type: functional
Neutrophil = test: Cytotoxicity against C57BL/6NCr mouse Neutrophil assessed as reduction in cell viability at 20 uM followed by photo-irradiation with 20 mW/cm^2 light by tryptan blue dye based hemacytometer; assay type: toxicity
Staphylococcus aureus [8] = test: Photodynamic antibacterial activity against Methicillin-resistant Staphylococcus aureus infected Balb/C mouse assessed as reduction in lymph node bacterial colony forming unit at 1.5 %,ID followed by photo-irradiation with 54 J/cm^2 light measured upto 72 hrs; assay type: functional
Staphylococcus aureus [9] = test: Photodynamic antibacterial activity against Methicillin-resistant Staphylococcus aureus in bovine bone assessed as reduction in bacterial colony forming unit at 1.5 g/L followed by photo-irradiation with 20.1 J/cm^2 light for 24 hrs by fluorescence spectroscopy; assay type: functional
Staphylococcus aureus [10] = test: Photodynamic antibacterial activity against Methicillin-resistant Staphylococcus aureus assessed as reduction in bacterial growth at 250 microg/ml followed by photo-irradiation with 100 J/cm^2 light for 100 sec; assay type: functional; design: scale not given: the % may be the effect or the level left; details: dose 250 µg/ml, 100 s
[11] = Photodynamic antibacterial activity against mix of Methicillin-resistant Staphylococcus aureus-Pseudomonas aeruginosa in maxillary sinus model assessed as reduction in bacterial colony forming unit at 0.03 % followed by photo-irradiation with 150 mW/cm^2 light by spectrophotometry; assay type: functional
[12] = Photodynamic antibacterial activity against mix of Methicillin-resistant Staphylococcus aureus-Pseudomonas aeruginosa assessed as reduction in bacterial colony forming unit at 500 microg/ml followed by photo-irradiation with 664 nm for 400 sec; assay type: functional; details: dose 500 µg/ml, 0.1111 h
Staphylococcus aureus [13] = test: Photodynamic antibacterial activity against Methicillin-resistant Staphylococcus aureus assessed as reduction in bacterial colony forming unit at 300 microg/ml followed by photo-irradiation with 664 nm for 400 sec; assay type: functional; details: dose 300 µg/ml, 0.1111 h
Staphylococcus aureus [14] = test: Photodynamic antibacterial activity against Methicillin-resistant Staphylococcus aureus assessed as reduction in bacterial colony forming unit at 3 uM followed by photo-irradiation with 30 J/cm^2 for 30 mins; assay type: functional; details: 0.5 h
Staphylococcus aureus [15] = test: Photodynamic antibacterial activity against Methicillin-resistant Staphylococcus aureus infected C57 mouse superficial wound model assessed as fold reduction in bacterial growth at 100 microg/ml,po for 15 mins followed by photo-irradiation with 360 J/cm^2 light for 30 mins; assay type: functional; details: dose 100 µg/ml, time 45 min, 0.75 h
Staphylococcus aureus [16] = test: Photodynamic antibacterial activity against Methicillin-resistant Staphylococcus aureus assessed as reduction in bacterial colony forming unit at 50 microg/ml followed by photo-irradiation with 163.8 J/cm^2 for 10 to 30 mins; assay type: functional; details: dose 50 µg/ml; time 10-30 min
[17] = Cytotoxicity against C57BL/6NCr mouse Neutrophil assessed as cell viability followed by photo-irradiation with 20 mW/cm^2 light by tryptan blue dye based hemacytometer; assay type: toxicity; details: mouse neutrophils, read-out: Activity
[18] = Photodynamic antibacterial activity against mix of Methicillin-resistant Staphylococcus aureus-Pseudomonas aeruginosa assessed as reduction in bacterial colony forming unit at 300 microg/ml followed by photo-irradiation with 664 nm for 400 sec; assay type: functional; details: dose 300 µg/ml, 0.1111 h
[19] = Photodynamic antibacterial activity against mix of Methicillin-resistant Staphylococcus aureus-Pseudomonas aeruginosa in maxillary sinus model assessed as reduction in bacterial growth at 0.03 % followed by photo-irradiation with 150 mW/cm^2 light by spectrophotometry; assay type: functional; design: scale not given: the % may be the effect or the level left
[20] = Photodynamic antibacterial activity against mix of Methicillin-resistant Staphylococcus aureus-Pseudomonas aeruginosa in endotracheal tube model assessed as reduction in growth unit at 500 microg/ml followed by photo-irradiation with 108 J/cm^2 light for 12 mins; assay type: functional; design: scale not given: the % may be the effect or the level left; details: dose 500 µg/ml, 0.2 h
Staphylococcus aureus [21] = test: Photodynamic antibacterial activity against Methicillin-resistant Staphylococcus aureus infected C57 mouse excision wound model assessed as fold reduction in bacterial growth at 100 microg/ml,po for 15 mins followed by photo-irradiation with 360 J/cm^2 light for 30 mins; assay type: functional; details: dose 100 µg/ml, time 45 min, 0.75 h
Staphylococcus aureus [22] = test: Photodynamic antibacterial activity against Methicillin-resistant Staphylococcus aureus assessed as reduction in bacterial colony forming unit at 500 microg/ml followed by photo-irradiation with 664 nm for 400 sec; assay type: functional; details: dose 500 µg/ml, 0.1111 h
Staphylococcus aureus [23] = test: Photodynamic antibacterial activity against Methicillin-resistant Staphylococcus aureus assessed as reduction in bacterial growth at 30 uM followed by photo-irradiation with violet light for 10 to 120 min; assay type: functional; design: scale not given: the % may be the effect or the level left; details: time 10-120 min
Staphylococcus aureus [24] = test: Photodynamic antibacterial activity against Methicillin-resistant Staphylococcus aureus assessed as reduction in bacterial growth at 120 uM followed by photo-irradiation with blue light for 10 to 120 min; assay type: functional; design: scale not given: the % may be the effect or the level left; details: time 10-120 min

Cc1cc2c(cc1C)N(C[C@H](O)C[C@H](O)CO)C1NC(=O)NC(=O)C1=N2 (stereo not given in full)
Activity (Staphylococcus aureus [1]): 99% | Activity (Staphylococcus aureus [2]): 90% | Activity (Staphylococcus aureus [3]): 98% | Activity (Staphylococcus aureus [4]): 98% | Activity (Staphylococcus aureus [5]): 100%

Cc1cc(O)c2c3c1-c1c(C)cc(O)c4c1C1c5c(c(O)cc(O)c5-c5c(O)cc(O)c(c5C31)C2=O)C4=O (stereo not given)
Activity (Staphylococcus aureus [6]): 92.2% | Activity (Staphylococcus aureus [7]): >6 log10CFU

CC/N=c1/cc2sc3cc(NCC)c(C)cc3nc-2cc1C.Cl
Activity (Neutrophil): < 70%

COc1cc(/C=C/C(=O)CC(=O)/C=C/c2ccc(O)c(OC)c2)ccc1O [CURCUMIN]
Activity (Staphylococcus aureus [8]): >5 log10CFU | Activity (Staphylococcus aureus [9]): 3.6 log10CFU

CN(C)c1ccc2nc3ccc(N(C)C)cc3[s+]c2c1.[Cl-] [METHYLENE BLUE ANHYDROUS]
Activity (Staphylococcus aureus [10]): >99% | Activity [11]: 5 log10CFU | Activity [12]: 7.39 log10CFU | Activity (Staphylococcus aureus [13]): 6.7 log10CFU | Activity (Staphylococcus aureus [14]): 7 log10CFU | fold change (FC) (Staphylococcus aureus [15]): 14 | Activity (Staphylococcus aureus [16]): 2.2 log10CFU | viability [17]: > 80% | Activity [18]: 6.7 log10CFU | Activity [19]: >99.99% | Activity [20]: >99.9% | fold change (FC) (Staphylococcus aureus [21]): 25 | Activity (Staphylococcus aureus [22]): 7.39 log10CFU

Cc1cc2nc3c(=O)[nH]c(=O)nc-3n(C[C@H](O)[C@H](O)[C@H](O)COP(=O)(O)O)c2cc1C [RIBOFLAVIN 5'-PHOSPHATE]
Activity (Staphylococcus aureus [23]): 97% | Activity (Staphylococcus aureus [24]): 95.2%
